How the values were obtained:
[1] = target: Cbl-b (Homo sapiens, UniProt Q13191); experiment: Cbl-b inhibition assay (Cbl-b activity assay, FRET, Biological Example 1; 100 mM NaCl, 60 nM Src kinase); type: biochemical; conditions: upper bound stated in text lists; read-out: IC50 values in the Cbl-b inhibition assay of Biological Example 1
Procedure, shortened: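 Binding-based Cbl-b activity assay. Src-phosphorylated, N-terminally biotin-Avi-tagged Cbl-b recruits labelled UbcH5B-Ub, and proximity to streptavidin-terbium yields FRET.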

[2] = tested on: T-cell; experiment: IL-2 secretion from T-cells co-stimulated with anti-CD3 and anti-CD28 antibody (Biological Example 2); type: cell-based, human; conditions: Homo sapiens, T-cell
Procedure, shortened: (§1)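 Values are fold-change over baseline: readings (IL-2 release, CD25 staining) from inhibitor-treated T-cells divided against untreated cells […]. No detailed procedure stated.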

[3] = tested on: T-cell; experiment: CD25 cell surface staining on T-cells co-stimulated with anti-CD3 and anti-CD28 antibody (Biological Example 2); type: cell-based, human; conditions: Homo sapiens, T-cell
Procedure, shortened: as §1

[4] = 0.3 μM compound, primary human total T-cells, baseline = anti-CD3/anti-CD28 stimulated cells without inhibitor, read-out: IL-2 secretion, Anti-CD3/Anti-CD28 stimulation, fold change over baseline
[5] = 1 μM compound, primary human total T-cells, baseline = anti-CD3/anti-CD28 stimulated cells without inhibitor, read-out: IL-2 secretion, Anti-CD3/Anti-CD28 stimulation, fold change over baseline
[6] = 0.3 μM compound, primary human total T-cells, baseline = anti-CD3/anti-CD28 stimulated cells without inhibitor, read-out: CD25 staining, Anti-CD3/Anti-CD28 stimulation, fold change over baseline
[7] = 1 μM compound, primary human total T-cells, baseline = anti-CD3/anti-CD28 stimulated cells without inhibitor, read-out: CD25 staining, Anti-CD3/Anti-CD28 stimulation, fold change over baseline
[8] = fold change over baseline, 0.3 μM Cbl-b inhibitor, primary human total T-cells, read-out: IL-2 secretion Anti-CD3/Anti-CD28 stimulation
[9] = fold change over baseline, 1 μM Cbl-b inhibitor, primary human total T-cells, read-out: IL-2 secretion Anti-CD3/Anti-CD28 stimulation
[10] = fold change over baseline, 4 μM Cbl-b inhibitor, primary human total T-cells, read-out: IL-2 secretion Anti-CD3/Anti-CD28 stimulation
[11] = fold change over baseline, 0.3 μM Cbl-b inhibitor, primary human total T-cells, read-out: CD25 staining Anti-CD3/Anti-CD28 stimulation
[12] = fold change over baseline, 1 μM Cbl-b inhibitor, primary human total T-cells, read-out: CD25 staining Anti-CD3/Anti-CD28 stimulation
[13] = fold change over baseline, 4 μM Cbl-b inhibitor, primary human total T-cells, read-out: CD25 staining Anti-CD3/Anti-CD28 stimulation
[14] = 0.3 μM Cbl-b inhibitor, fold change over baseline (anti-CD3/anti-CD28 stimulated T-cells without inhibitor), read-out: IL-2 secretion Anti-CD3/Anti-CD28 stimulation
[15] = 1 μM Cbl-b inhibitor, fold change over baseline (anti-CD3/anti-CD28 stimulated T-cells without inhibitor), read-out: IL-2 secretion Anti-CD3/Anti-CD28 stimulation
[16] = 0.3 μM Cbl-b inhibitor, fold change over baseline (anti-CD3/anti-CD28 stimulated T-cells without inhibitor), read-out: CD25 staining Anti-CD3/Anti-CD28 stimulation
[17] = 1 μM Cbl-b inhibitor, fold change over baseline (anti-CD3/anti-CD28 stimulated T-cells without inhibitor), read-out: CD25 staining Anti-CD3/Anti-CD28 stimulation
[18] = 4 μM compound, primary human total T-cells, baseline = anti-CD3/anti-CD28 stimulated cells without inhibitor, read-out: IL-2 secretion, Anti-CD3/Anti-CD28 stimulation, fold change over baseline
[19] = 4 μM compound, primary human total T-cells, baseline = anti-CD3/anti-CD28 stimulated cells without inhibitor, read-out: CD25 staining, Anti-CD3/Anti-CD28 stimulation, fold change over baseline

Chain of Cbl-b (Q13191 36-427): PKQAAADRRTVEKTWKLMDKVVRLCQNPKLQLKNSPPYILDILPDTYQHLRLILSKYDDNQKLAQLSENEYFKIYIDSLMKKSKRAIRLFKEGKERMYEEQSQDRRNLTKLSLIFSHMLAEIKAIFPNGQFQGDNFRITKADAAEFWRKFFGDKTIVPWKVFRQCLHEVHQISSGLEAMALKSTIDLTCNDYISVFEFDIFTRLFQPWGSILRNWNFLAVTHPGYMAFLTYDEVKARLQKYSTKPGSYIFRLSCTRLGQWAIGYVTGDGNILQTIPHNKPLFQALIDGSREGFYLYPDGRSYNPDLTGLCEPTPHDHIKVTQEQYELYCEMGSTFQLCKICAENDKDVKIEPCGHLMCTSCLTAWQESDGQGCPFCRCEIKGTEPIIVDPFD

Structure (SMILES) | IC50 [1] | fold induction at 0.3 µM [2, 4] | fold induction at 1 µM [2, 5] | fold induction at 0.3 µM [3, 6] | fold induction at 1 µM [3, 7] | fold induction at 0.3 µM [2, 8] | fold induction at 1 µM [2, 9] | fold induction at 4 µM [2, 10] | fold induction at 0.3 µM [3, 11] | fold induction at 1 µM [3, 12] | fold induction at 4 µM [3, 13] | fold induction at 0.3 µM [2, 14] | fold induction at 1 µM [2, 15] | fold induction at 0.3 µM [3, 16] | fold induction at 1 µM [3, 17] | fold induction at 4 µM [2, 18] | fold induction at 4 µM [3, 19]
C[C@@H](c1cc2c(c(C(F)(F)F)c1)CN(c1cccc(C3(Cc4nncn4C)COC3)c1)C2=O)N1CCC(C)(F)CC1 [Example 553a, (S)-6-(1-(4-fluoro-4-methylpiperidin-1-yl)ethyl)-2-(3-(3-((4-methyl-4H-1,2,4-triazol-3-yl)methyl)oxetan-3-yl)phenyl)-4-(trifluoromethyl)isoindolin-1-one] | ≤ 100 nM | > 7.5 | > 7.5 | > 1.76 | > 1.76 |  |  |  |  |  |  |  |  |  |  |  | 
Cn1cnnc1CC1(c2cccc(N3Cc4c(cccc4C(F)(F)F)C3=O)c2)CC1 [Compound 299, 2-(3-(1-((4-methyl-4H-1,2,4-triazol-3-yl)methyl)cyclopropyl)phenyl)-4-(trifluoromethyl)isoindolin-1-one] | ≤ 100 nM |  |  |  |  | 2.51 to 5 | 2.51 to 5 | 5 to 7.5 | < 1 | 1.01 to 1.3 | 1.01 to 1.3 |  |  |  |  |  | 
C[C@H](Sc1nncn1C)c1cccc(NC(=O)c2ccc(CO)c(C3CC3)n2)c1 [Compound 89, 6-cyclopropyl-5-(hydroxymethyl)-N-[3-[(1S)-1-[(4-methyl-1,2,4-triazol-3-yl)sulfanyl]ethyl]phenyl]pyridine-2-carboxamide] | ≤ 100 nM |  |  |  |  | 1.01 to 2.5 | 2.51 to 5 | 5 to 7.5 | 1.01 to 1.3 | 1.01 to 1.3 | 1.31 to 1.5 |  |  |  |  |  | 
C[C@@H]1CN(Cc2cc3c(c(C(F)(F)F)c2)CN(c2cccc(C4(Cc5nncn5C)COC4)c2)C3=O)CCO1 [Example 663b, (R)-2-(3-(3-((4-methyl-4H-1,2,4-triazol-3-yl)methyl)oxetan-3-yl)phenyl)-6-((2-methylmorpholino)methyl)-4-(trifluoromethyl)isoindolin-1-one] | ≤ 100 nM |  |  |  |  |  |  |  |  |  |  | > 7.5 | > 7.5 | 1.31 to 1.5 | 1.31 to 1.5 |  | 
Cc1cc(C(=O)Nc2cccc([C@H](C)Cc3nncn3C)c2)nc(C(F)(F)F)n1 [Compound 194, (R)-6-methyl-N-(3-(1-(4-methyl-4H-1,2,4-triazol-3-yl)propan-2-yl)phenyl)-2-(trifluoromethyl)pyrimidine-4-carboxamide] | ≤ 100 nM |  |  |  |  | 2.51 to 5 | > 7.5 | > 7.5 | 1.01 to 1.3 | 1.51 to 1.75 | > 1.76 |  |  |  |  |  | 
Cn1cnnc1CC1(c2cccc(N3Cc4c(cc(CN5C[C@H]6C[C@H]6C5)cc4C(F)(F)F)C3=O)c2)COC1 [Compound 429, 6-(((1R,5S)-3-azabicyclo[3.1.0]hexan-3-yl)methyl)-2-(3-(3-((4-methyl-4H-1,2,4-triazol-3-yl)methyl)oxetan-3-yl)phenyl)-4-(trifluoromethyl)isoindolin-1-one] | ≤ 100 nM | > 7.5 | > 7.5 | 1.31 to 1.5 | 1.31 to 1.5 |  |  |  |  |  |  |  |  |  |  | > 7.5 | 1.51 to 1.75
C[C@H](Cc1nncn1C)c1cccc(NC(=O)c2nc3c(C4CC4)cccc3[nH]2)c1 [Compound 319, 4-cyclopropyl-N-[3-[(1R)-1-methyl-2-(4-methyl-1,2,4-triazol-3-yl)ethyl]phenyl]-1H-benzimidazole-2-carboxamide] | ≤ 300 nM |  |  |  |  | 1.01 to 2.5 | 1.01 to 2.5 | 2.51 to 5 | 1.01 to 1.3 | 1.01 to 1.3 | 1.01 to 1.3 |  |  |  |  |  | 
CCOc1cc([C@H](C)Cc2nncn2C)cc(N2Cc3c(cccc3C(F)(F)F)C2=O)n1 [Compound 358, (R)-2-(6-ethoxy-4-(1-(4-methyl-4H-1,2,4-triazol-3-yl)propan-2-yl)pyridin-2-yl)-4-(trifluoromethyl)isoindolin-1-one] | ≤ 100 nM |  |  |  |  | 2.51 to 5 | 5 to 7.5 | > 7.5 | 1.01 to 1.3 | 1.31 to 1.5 | 1.31 to 1.5 |  |  |  |  |  | 
C[C@H](Cc1nncn1C)c1cccc(N2Cc3c(cc(C(=O)N4C[C@@H](O)C[C@H]4C)cc3C(F)(F)F)C2=O)c1 [Compound 275, 6-((2R,4S)-4-hydroxy-2-methylpyrrolidine-1-carbonyl)-2-(3-((R)-1-(4-methyl-4H-1,2,4-triazol-3-yl)propan-2-yl)phenyl)-4-(trifluoromethyl)isoindolin-1-one] | ≤ 100 nM |  |  |  |  | 2.51 to 5 | 5 to 7.5 | > 7.5 | 1.31 to 1.5 | 1.51 to 1.75 | > 1.76 |  |  |  |  |  | 
CNc1cc([C@H](C)Cc2nncn2C)cc(N2Cc3c(cccc3C(F)(F)F)C2=O)n1 [Compound 363, (R)-2-(4-(1-(4-methyl-4H-1,2,4-triazol-3-yl)propan-2-yl)-6-(methylamino)pyridin-2-yl)-4-(trifluoromethyl)isoindolin-1-one] | ≤ 100 nM |  |  |  |  | 1.01 to 2.5 | 1.01 to 2.5 | 5 to 7.5 | 1.01 to 1.3 | 1.01 to 1.3 | 1.31 to 1.5 |  |  |  |  |  | 
Cn1cnnc1CC1(c2cccc(N3Cc4c(cc(CN5CC[C@H](F)C5)cc4C(F)(F)F)C3=O)c2)COC1 [Compound 410, 6-{[(3S)-3-fluoropyrrolidin-1-yl]methyl}-2-(3-{3-[(4-methyl-4H-1,2,4-triazol-3-yl)methyl]oxetan-3-yl}phenyl)-4-(trifluoromethyl)-2,3-dihydro-1H-isoindol-1-one] | ≤ 100 nM | 5 to 7.5 | > 7.5 | 1.31 to 1.5 | 1.51 to 1.75 |  |  |  |  |  |  |  |  |  |  | > 7.5 | 1.51 to 1.75
C[C@H](Cc1nncn1C)c1cccc(NC(=O)c2cc(C(C)(C)O)cc(C(F)(F)F)n2)c1 [Compound 320, 4-(2-hydroxypropan-2-yl)-N-[3-[(2R)-1-(4-methyl-4H-1,2,4-triazol-3-yl)propan-2-yl]phenyl]-6-(trifluoromethyl)pyridine-2-carboxamide] | ≤ 300 nM |  |  |  |  | 1.01 to 2.5 | 2.51 to 5 | 5 to 7.5 | 1.01 to 1.3 | 1.01 to 1.3 | 1.01 to 1.3 |  |  |  |  |  | 
C[C@H](c1cc2c(c(C(F)(F)F)c1)CN(c1cccc(C3([C@H](F)c4nncn4C)COC3)c1)C2=O)N1CCC2(CC2)C1 (stereo in doubt) [Example 575, 6-((R)-1-(5-Azaspiro[2.4]heptan-5-yl)ethyl)-2-(3-(3-((S)-fluoro(4-methyl-4H-1,2,4-triazol-3-yl)methyl)oxetan-3-yl)phenyl)-4-(trifluoromethyl)isoindolin-1-one] | ≤ 100 nM |  |  |  |  |  |  |  |  |  |  | > 7.5 | > 7.5 | 1.31 to 1.5 | 1.31 to 1.5 |  | 
C[C@H](Cc1nncn1C)c1cccc(NC(=O)c2cccc(C(C)(C)C)n2)c1 [Compound 321, (R)-6-(Tert-butyl)-N-(3-(1-(4-methyl-4H-1,2,4-triazol-3-yl)propan-2-yl)phenyl)picolinamide] | ≤ 100 nM |  |  |  |  | 1.01 to 2.5 | 2.51 to 5 | 2.51 to 5 | 1.01 to 1.3 | 1.01 to 1.3 | 1.01 to 1.3 |  |  |  |  |  | 

— US20220324835A1 (Nurix Therapeutics, Inc., priority 2018, published 2022)
